Data on 30 compounds can be found in patent US4968698A, “Nitrogen containing heterocyclic compounds” (Burroughs Wellcome Co., priority 1984, dated 1990).

The structures appear in SMILES notation. In brackets after ≈: the same amount, converted by molar mass. Read-outs that look alike come from different tables or passages of the source.

The test system of experiment [1] is Candida albicans. The experiment is described as follows: In vitro activity against Candida albicans (minimum inhibition concentration). Format: cell-based. Particulars: Yeast Nitrogen Base (YNB) broth; salt form given per compound. As to the method: The antifungal activity of the compounds of the present invention may be evaluated by determining the minimum fungistatic (inhibition) concentration (m.i.c.). This test is usually performed by preparing a series of plates or tubes containing a suitable nutrient medium, each plate or tube also containing a different concentration of the test compound and then inoculating the medium with the fungal species. After an incubation period the plates are examined visually for the presence or absence of fungal growth. The m.i.c. is the minimum concentration required to prevent fungal growth.
Minimum Inhibition Concentrations (MICs) of compounds of the present invention vs. C. albicans were determined.
The solution was filter sterilised with a 0.45 μm membrane filter unit and was then further diluted with sterile distilled water (SDW)-YNB solution: SDW (1:5).

For experiment [2], the system named is Trichomonas vaginalis. As to the kind of experiment: In vitro activity against T. vaginalis (IC50 determination). Format: cell-based. To be noted: 37° C., aerobic, Modified Diamonds Medium. Here is the method:
The antiprotozoal e.g. antitrichomonal, activity of the compounds of the present invention may be assessed by conventional methods, for example by determining the minimum inhibition concentration (m.i.c.) or 50% inhibition level (IC50).
Modified Diamonds Medium (MDM) was prepared according to the method described in J. Kulda et al., American Journal of Obstetrics and Gynaecology 1970, 108, 908-18 and 4 cm^3 of the medium was pipetted into each of a series of tubes (usually 16 tubes). To each tube was added 0.5 cm^3 of varying concentration of a solution (usually in ethanol+MDM) or suspension of the test drug. Duplicate tubes for each drug concentration were prepared.
Finally, to each tube was added T. vaginalis (0.5 cm^3) at a concentration of 1×10^5 cm^-3,) to give a final trichomonad concentration of 1×10^4 cm^-3 in each tube. The tubes were then incubated (aerobically) at 37° C. and the resulting trichomonad numbers were counted at 24 and 48 hours using a haemacytometer.
This information was then used to determine the 50% inhibition concentration (IC50).

Setting [3] is: 24 hr, 1×10^4 trichomonads cm^-3, read-out: IC50 24 hr.
[4] abbreviates: 48 hr, 1×10^4 trichomonads cm^-3, read-out: IC50 48 hr.

Consider `CCCCOc1ccc2c(c1)CCN=C2/C=C/C1CCCCC1` [Example 1, (E)-6-Butyloxy-1-(2-cyclohexylvinyl)-3,4-dihydroisoquinoline], for which, in experiment [1], the minimum inhibitory concentration (MIC) (usually the lowest concentration found to suppress growth) worked out at 1.6 µg/mL. Also, the 50% inhibitory concentration (IC50) (usually the point on the concentration scale where inhibition reaches its midpoint) in experiment [2] (setting [3]) was 1.3 µg/mL (≈ 4.17 µM); in experiment [2] (setting [4]) it was 1.8 µg/mL (≈ 5.78 µM).

Regarding `C(=CC1CCCCC1)C1=NCCc2cc(OCc3ccccc3)ccc21` [Example 2, 6-Benzyloxy-1-[2-cyclohexylvinyl]-3,4-dihydroisoquinoline], the MIC in experiment [1] came out at 1.6 µg/mL. For the same compound, the IC50 was 1 µg/mL (≈ 2.89 µM) in experiment [2] (setting [3]) and 1.8 µg/mL (≈ 5.21 µM) in experiment [2] (setting [4]).

Regarding `CCCCOc1ccc2c(c1)CCN=C2C=Cc1ccccc1` [Example 3, 6-Butyloxy-3,4-dihydro-1-styrylisoquinoline], in experiment [1], the minimum inhibitory concentration (MIC) was 6.2 µg/mL. For the same compound, the IC50 in experiment [2] (setting [3]) was found to be 3.7 µg/mL (≈ 12.1 µM); in experiment [2] (setting [4]) it was 8.8 µg/mL (≈ 28.8 µM).

In the case of `CC(C)COc1ccc2c(c1)CCN=C2/C=C/C1CCCCC1` [Example 5, (E)-1-(2-Cyclohexylvinyl)-3,4-dihydro-6-(2-methylpropyloxy)isoquinoline], the MIC in experiment [1] amounted to 6.2 µg/mL. The results for the IC50 in experiment [2] (setting [3]) and in experiment [2] (setting [4]) were 6.1 µg/mL (≈ 19.6 µM) and 6.4 µg/mL (≈ 20.5 µM), respectively.

Take `CCCOc1ccc2c(c1)CCN=C2/C=C/C1CCCCC1` [Example 6, (E)-1-(2-Cyclohexylvinyl)-3,4-dihydro-6-propyloxyisoquinoline]: the MIC in experiment [1] was 25 µg/mL. For the same compound, the concentration for half-maximal inhibition (IC50) in experiment [2] (setting [3]) and in experiment [2] (setting [4]) was 0.4 µg/mL (≈ 1.34 µM) each time.

For the compound `CCCCOc1ccc2c(c1)CCN=C2C=Cc1ccc(C#N)cc1` [Example 13, 6-Butyloxy-3,4-dihydro-1-(4-cyanostyryl)isoquinoline], the MIC in experiment [1] was 6.2 µg/mL. Besides, the values for the IC50 in experiment [2] (setting [3]) and in experiment [2] (setting [4]) were 1.5 µg/mL (≈ 4.54 µM) and 2.5 µg/mL (≈ 7.57 µM), respectively.

Turning to `CCCCOc1ccc2c(c1)CCN=C2C=Cc1ccc(Cl)cc1` [Example 22, 6-Butyloxy-1-(4-chlorostyryl)-3,4-dihydroisoquinoline], the minimum inhibitory concentration (MIC) in experiment [1] turned out to be 3.1 µg/mL.

On to `CCCCOc1ccc2c(c1)CCN=C2/C=C/c1c(F)c(F)c(F)c(F)c1F` [Example 23, (E)-6-Butyloxy-1-(2-pentafluorophenyl)vinyl-3,4-dihydroisoquinoline], for which the minimal inhibitory concentration (MIC) in experiment [1] came to 6.2 µg/mL. Also, the IC50 in experiment [2] (setting [3]) was found to be 1.1 µg/mL (≈ 2.78 µM); in experiment [2] (setting [4]) it was 2.3 µg/mL (≈ 5.82 µM).

On to `CCCOc1ccc2c(c1)CCN=C2C=Cc1ccc(Cl)cc1Cl` [Example 31, 1-(2,4-Dichlorostyryl)-3,4-dihydro-6-propyloxyisoquinoline], for which, in experiment [1], the MIC was found to be 6.2 µg/mL.

With `Clc1ccccc1C=CC1=NCCc2cc(OCC3CCCCC3)ccc21` [Example 39, 1-(2-Chlorostyryl)-6-cyclohexylmethoxy-3,4-dihydroisoquinoline], the minimal inhibitory concentration (MIC) in experiment [1] is 1.6 µg/mL.

As for `C=CCCOc1ccc2c(c1)CCN=C2C=Cc1ccc(Cl)cc1` [Example 45, 6-(But-3-enyloxy)-1-(4-chlorostyryl)-3,4-dihydroisoquinoline], in experiment [1], the MIC was 6.2 µg/mL. Moreover, the half-inhibitory concentration (IC50) in experiment [2] (setting [3]) is 2.2 µg/mL (≈ 6.51 µM); in experiment [2] (setting [4]) it was 2.8 µg/mL (≈ 8.29 µM).

Take `CC(C)CCOc1ccc2c(c1)CCN=C2C=Cc1ccc(Cl)cc1` [Example 50, 1-(4-Chlorostyryl)-3,4-dihydro-6-(3-methylbutyloxy)-isoquinoline]: in experiment [1], the MIC was found to be 6.2 µg/mL.

On to `N#Cc1ccc(C=CC2=NCCc3cc(OCc4ccccc4)ccc32)cc1` [Example 52, 6-Benzyloxy-1-(4-cyanostyryl)-3,4-dihydroisoquinoline], for which the minimal inhibitory concentration (MIC) in experiment [1] was 6.2 µg/mL. The IC50 turned out to be 2.9 µg/mL (≈ 7.96 µM) in experiment [2] (setting [3]) and 3.2 µg/mL (≈ 8.78 µM) in experiment [2] (setting [4]).

`Clc1ccc(C=CC2=NCCc3cc(OCc4ccccc4)ccc32)cc1` [Example 57, 6-Benzyloxy-1-(4-chlorostyryl)-3,4-dihydroisoquinoline]: the MIC in experiment [1] came out at 6.2 µg/mL.

In the case of `CCCCOc1ccc2c(c1)CCN=C2/C=C/c1ccsc1` [Example 107, (E)-6-Butyloxy-3,4-dihydro-1-(3-thienyl)vinylisoquinoline], in experiment [1], the MIC worked out at 25 µg/mL.

For the compound `C/C=C/C=C/C1=NCCc2cc(OCCCC)ccc21` [Example 128, (E,E)-6-Butyloxy-3,4-dihydro-1-(penta-1,3-dienyl)isoquinoline], the MIC in experiment [1] was 25 µg/mL. Also, the IC50 in experiment [2] (setting [3]) is 1.5 µg/mL (≈ 5.57 µM); in experiment [2] (setting [4]), 1.6 µg/mL (≈ 5.94 µM).

In the case of `CCCCOc1ccc2c(c1)CCN=C2C=Cc1ccc(C)s1` [Example 144, 6-Butyloxy-3,4-dihydro-1-(2-(5-methyl-2-thienyl)vinyl)isoquinoline], in experiment [1], the minimum inhibitory concentration (MIC) came to 1.6 µg/mL.

Take `CCCOc1cc2c(cc1OCCC)C(C=Cc1ccc(Cl)cc1Cl)=NCC2` [Example 155, 1-(2,4-Dichlorostyryl)-3,4-dihydro-6,7-dipropyloxyisoquinoline]: the 50% inhibitory concentration (IC50) in experiment [2] (setting [3]) is 1.2 µg/mL (≈ 2.87 µM); in experiment [2] (setting [4]) it was 2.2 µg/mL (≈ 5.26 µM).

With `CCCCOc1cc2c(cc1OCCCC)C(C=Cc1ccc(Cl)cc1)=NCC2` [Example 157, 6,7-Dibutyloxy-1-(4-chlorostyryl)-3,4-dihydroisoquinoline], the IC50 stood at 1.8 µg/mL (≈ 4.37 µM) in experiment [2] (setting [3]) and 2.1 µg/mL (≈ 5.1 µM) in experiment [2] (setting [4]).

Take `CCCOc1cc2c(cc1OCCC)C(C=Cc1ccc(Cl)cc1Cl)=NC(C)C2` (stereo not drawn) [Example 158, 1-(2,4-Dichlorostyryl)-3,4-dihydro-3-methyl-6,7-dipropyloxyisoquinoline]: the IC50 in experiment [2] (setting [3]) was 0.8 µg/mL (≈ 1.85 µM); in experiment [2] (setting [4]) it was 1.1 µg/mL (≈ 2.54 µM).

On to `CCCCOc1cc2c(cc1OCC)C(C=Cc1ccc(Cl)cc1Cl)=NCC2` [Example 160, 6-Butyloxy-1-(2,4-dichlorostyryl)-7-ethoxy-3,4-dihydroisoquinoline], for which the IC50 was 0.6 µg/mL (≈ 1.43 µM) in experiment [2] (setting [3]) and 1 µg/mL (≈ 2.39 µM) in experiment [2] (setting [4]).

With `CCCCOc1cc2c(cc1OCC)CCN=C2C=Cc1ccc(Cl)cc1Cl` [Example 161, 7-Butyloxy-1-(2,4-dichlorostyryl)-6-ethoxy-3,4-dihydroisoquinoline], the figures for the IC50 in experiment [2] (setting [3]) and in experiment [2] (setting [4]) were 0.7 µg/mL (≈ 1.67 µM) and 1.4 µg/mL (≈ 3.35 µM), respectively.

In the case of `CCCCCCOc1cc2c(cc1OCCCCCC)C(C=Cc1ccc(Cl)cc1)=NCC2` [Example 165, 1-(4-Chlorostyryl)-6,7-dihexyloxy-3,4-dihydroisoquinoline], the IC50 turned out to be 9 µg/mL (≈ 19.2 µM) in experiment [2] (setting [3]) and 10 µg/mL (≈ 21.4 µM) in experiment [2] (setting [4]).

With `Clc1ccc(C=CC2=NCCc3cc(OCc4ccccc4)c(OCc4ccccc4)cc32)c(Cl)c1` [Example 170, 6,7-Bisbenzyloxy-1-(2,4-dichlorostyryl)-3,4-dihydroisoquinoline], the IC50 in experiment [2] (setting [3]) was 1 µg/mL (≈ 1.94 µM); in experiment [2] (setting [4]), 3.2 µg/mL (≈ 6.22 µM).

`C(=Cc1ccccc1)C1=NCCc2c1ccc(OCc1ccccc1)c2OCc1ccccc1` [Example 171, 5,6-Bis(benzyloxy)-3,4-dihydro-1-styrylisoquinoline]: the figures for the concentration for half-maximal inhibition (IC50) in experiment [2] (setting [3]) and in experiment [2] (setting [4]) were 0.8 µg/mL (≈ 1.8 µM) and 1.8 µg/mL (≈ 4.04 µM), respectively.

On to `Clc1ccc(C=CC2=NCCc3c2ccc(OCc2ccccc2)c3OCc2ccccc2)cc1` [Example 172, 5,6-Bis(benzyloxy)-1-(4-chlorostyryl)-3,4-dihydroisoquinoline], for which the IC50 is 0.7 µg/mL (≈ 1.46 µM) in experiment [2] (setting [3]) and 2 µg/mL (≈ 4.17 µM) in experiment [2] (setting [4]).

On to `COc1ccc(OCc2ccccc2)c2c1C(C=Cc1ccccc1)=NCC2` [Example 174, 5-Benzyloxy-3,4-dihydro-8-methoxy-1-styryl-isoquinoline], for which the half-maximal inhibitory concentration (IC50) in experiment [2] (setting [3]) amounted to 1.4 µg/mL (≈ 3.79 µM); in experiment [2] (setting [4]), 2 µg/mL (≈ 5.41 µM).

`COc1ccc(OCc2ccccc2)c2c1C(C=Cc1ccc(C#N)cc1)=NCC2` [Example 175, 5-Benzyloxy-1-(4-cyanostyryl)-3,4-dihydro-8-methoxyisoquinoline]: the IC50 in experiment [2] (setting [3]) worked out at 0.4 µg/mL (≈ 1.01 µM); in experiment [2] (setting [4]), 1 µg/mL (≈ 2.54 µM).

In the case of `CCCc1c2c(cc(OC)c1OCc1ccccc1)C(C=Cc1ccc(Cl)cc1)=NCC2` [Example 176, 6-Benzyloxy-1-(4-chlorostyryl)-3,4-dihydro-7-methoxy-5-propylisoquinoline], the IC50 in experiment [2] (setting [3]) is 1.7 µg/mL (≈ 3.81 µM); in experiment [2] (setting [4]), 3.1 µg/mL (≈ 6.95 µM).

On to `CCCc1c(O)c(OC)cc2c1CCN=C2C=Cc1ccccc1Cl` [Example 180, 1-(2-Chlorostyryl)-3,4-dihydro-6-hydroxy-7-methoxy-5-propylisoquinoline], for which the 50% inhibitory concentration (IC50) in experiment [2] (setting [3]) was determined as 1 µg/mL (≈ 2.81 µM); in experiment [2] (setting [4]) it was 1.6 µg/mL (≈ 4.5 µM).
